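All cell lines were grown in 96-well plates and treated with compound for 48 hours. The concentration for full growth arrest is given as TGI.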
Legend:
Assay in all cases: DTP human tumour cell line panel, 48 h
[1] = test system: CAKI-1 renal
[2] = test system: IGROV1 ovarian
[3] = test system: SK-MEL-28 melanoma
[4] = test system: MDA-N
[5] = test system: M14 melanoma
[6] = test system: UACC-257 melanoma
[7] = test system: HOP-62 NSCLC
[8] = test system: RPMI-8226 leukemia
[9] = test system: PC-3 prostate
[10] = test system: UACC-62 melanoma
[11] = test system: SF-295 CNS
[12] = test system: SNB-19 CNS
[13] = test system: K-562 leukemia
[14] = test system: OVCAR-4 ovarian
[15] = test system: HCT-116 colon
[16] = test system: DU-145 prostate
[17] = test system: SF-539 CNS
[18] = test system: MOLT-4 leukemia
[19] = test system: A498 renal
[20] = test system: MDA-MB-231 breast
[21] = test system: SW-620 colon
[22] = test system: OVCAR-3 ovarian
[23] = test system: SK-MEL-5 melanoma
[24] = test system: NCI-H460 lung
[25] = test system: LOX IMVI melanoma
[26] = test system: KM12 colon
[27] = test system: HT29 colon
[28] = test system: SK-OV-3 ovarian
[29] = test system: NCI/ADR-RES ovarian
[30] = test system: SN12C renal
[31] = test system: OVCAR-5 ovarian
[32] = test system: NCI-H23 lung
[33] = test system: MDA-MB-435
[34] = test system: ACHN renal
[35] = test system: HCC-2998 colon
[36] = test system: 786-0 renal
[37] = test system: OVCAR-8 ovarian
[38] = test system: SR leukemia
[39] = test system: BT-549 breast
[40] = test system: EKVX NSCLC
[41] = test system: COLO 205 colon
[42] = test system: MCF7 breast
[43] = test system: T-47D breast
[44] = test system: HCT-15 colon
[45] = test system: U251 CNS
[46] = test system: SK-MEL-2 melanoma
[47] = test system: CCRF-CEM leukemia
[48] = test system: UO-31 renal
[49] = test system: SNB-75 CNS
[50] = test system: NCI-H226 lung
[51] = test system: A549 NSCLC
[52] = test system: HOP-92 NSCLC
[53] = test system: RXF 393 renal
[54] = test system: HS 578T breast
[55] = test system: NCI-H522 lung
[56] = test system: TK-10 renal
[57] = test system: HL-60(TB) leukemia

`O=C(O)c1nc2ccc(C(F)(F)F)cc2nc1NCc1ccc(Cl)c(Cl)c1` was tested, and the TGI [1] was 36.9 µM, the TGI [2] was 30.7 µM and the TGI [3] was 33.7 µM. It also gave a TGI [4] of 35.1 µM, a TGI [5] of 31.6 µM and a TGI [6] of 54.3 µM. The TGI [7] was 32.2 µM, the TGI [8] was greater than 100 µM and the TGI [9] was 29.4 µM. It also gave a TGI [10] of 32.5 µM, a TGI [11] of 37.2 µM and a TGI [12] of 25.1 µM. The TGI [13] was 42.1 µM, the TGI [14] was 51.4 µM and the TGI [15] was 29.7 µM. It also gave a TGI [16] of 32.5 µM, a TGI [17] of 36.6 µM and a TGI [18] of 34.2 µM. It also gave a TGI [19] of 34.6 µM, a TGI [20] of 34.5 µM and a TGI [21] of 47.2 µM. The TGI [22] was 24.6 µM, the TGI [23] was 37.5 µM and the TGI [24] was 30.8 µM. For the same molecule, the TGI [25] was 29.8 µM, the TGI [26] was 33.8 µM and the TGI [27] was 28.5 µM. For the same molecule, the TGI [28] was 38.5 µM, the TGI [29] was 42.7 µM and the TGI [30] was 28.8 µM. It also gave a TGI [31] of 26.3 µM, a TGI [32] of 32.4 µM and a TGI [33] of 30 µM. For the same molecule, the TGI [34] was 30.5 µM, the TGI [35] was 30.5 µM and the TGI [36] was 29.3 µM. It also gave a TGI [37] of 32.8 µM, a TGI [38] of 36.5 µM and a TGI [39] of 33.1 µM. It also gave a TGI [40] of 30.4 µM, a TGI [41] of 37.4 µM and a TGI [42] of 45.3 µM. For the same molecule, the TGI [43] was 35.2 µM, the TGI [44] was 36.5 µM and the TGI [45] was 28.3 µM. For the same molecule, the TGI [46] was 27.8 µM, the TGI [47] was greater than 100 µM and the TGI [48] was 26.2 µM. For the same molecule, the TGI [49] was 39.1 µM, the TGI [50] was 44.1 µM and the TGI [51] was 29.7 µM. The TGI [52] was 32.2 µM.
`CO[C@H]1C[C@H](O[C@H]2CC[C@]3(C=O)[C@H]4CC[C@]5(C)[C@@H](C6=CC(=O)OC6)CC[C@]5(O)[C@@H]4CC[C@]3(O)C2)O[C@H](C)[C@H]1O[C@@H]1O[C@H](CO)[C@@H](O)[C@H](O)[C@H]1O` gave a TGI [2] of 0.139 µM, a TGI [3] of 0.000145 µM and a TGI [4] of 7.4e-05 µM. For the same molecule, the TGI [7] was 4.25e-05 µM, the TGI [8] was 0.0001 µM and the TGI [53] was 0.000154 µM. For the same molecule, the TGI [9] was 0.000955 µM, the TGI [11] was 0.000289 µM and the TGI [54] was greater than 100 µM. For the same molecule, the TGI [14] was 3.07e-05 µM, the TGI [15] was 3.5e-05 µM and the TGI [16] was 1.66e-05 µM. The TGI [17] was 5.85e-05 µM, the TGI [18] was 1.32e-05 µM and the TGI [19] was 0.000198 µM. It also gave a TGI [20] of 0.0025 µM, a TGI [55] of 0.0405 nM and a TGI [21] of 7.47e-05 µM. The TGI [56] was 0.000395 µM, the TGI [57] was 0.011 µM and the TGI [23] was 9.72e-05 µM. The TGI [24] was 7.71e-05 µM, the TGI [28] was 0.000153 µM and the TGI [30] was 3.64e-05 µM. For the same molecule, the TGI [31] was 6.97e-05 µM, the TGI [32] was 2.88e-05 µM and the TGI [34] was 0.000135 µM. For the same molecule, the TGI [35] was 0.0271 µM, the TGI [39] was 4.72e-05 µM and the TGI [40] was 2.03e-05 µM. The TGI [41] was 0.000867 µM, the TGI [43] was 0.000185 µM and the TGI [44] was 8.31e-05 µM. The TGI [46] was 0.000435 µM, the TGI [47] was 0.025 µM and the TGI [51] was 9.83e-06 µM. For the same molecule, the TGI [52] was 0.000141 µM.
